Experiments:
[1] = system: human melanoma (MDA-MB-435 cells); experiment: Melanoma growth in SCID mice bearing MDA-MB-435 xenograft; assay type: in vivo, mouse; conditions: 5 days-on/2 days-off; for tumor growth (volume): from Day 16
Experimental: In experiments with SCID mice, 5 week old CB17/lcr-Prkdcscid/lcrlcoCrl mice (sourced from Charles River Laboratories, USA) were inoculated s.c. with human MDA-MB-435 cells (2.5×10^6 cells/animal in 100 μl PBS) in the third mammary fat pad on Day 0. These cells were also sourced from ATCC. BT2 was suspended at 9.6 mg/ml in vehicle (saline containing 0.5% (v/v) Tween 80 and 0.01% (v/v) DMSO) and sonicated. Vehicle or BT2 were administered i.p. or intratumorally (i.t.) 20 mg/kg (i.t.) or 200 mg/kg (i.p.), once a day on a 5 days-on/2 days-off schedule. Treatment commenced on Day 16 and ended on Day 43. Tumor growth and body weight data is sourced from the animal study described in Li et al (Li et al., 2019) with the same vehicle group.
Tumors were measured by length and width in mm twice per week for MDA-MB-435 in SCID mice and by length, width and height in mm once per day for B16F10 in C57BL/6J mice. Tumor volumes were calculated using formula V=(L×W×H×π)/6 (B16F10) or V=L×W×W/2 (MDA-MB-435). If a second tumor was detected in an animal, both tumor volumes were measured and their volumes combined. Animal protocols were approved by the Explora Biolabs' Institutional Animal Care and Use Committee (IACUC) and the UNSW Animal Care and Ethics Committee.
BT2's ability to inhibit melanoma growth was investigated in a murine xenograft model. Immunocompromised SCID mice (C.B.17/lcr-Prkdcscid/lcrlcoCrl) bearing human melanoma (MDA-MB-435 cells, also mutant BRAF^V600E) were treated with 20 mg/kg BT2 intratumorally (i.t.) on a 5 days-on/2 days-off regime (FIG. 5A).
To assess the effect of BT2 when delivered systemically (rather than locally) in the same immunodeficient mouse model, C.B.17 SCID mice bearing s.c. MDA-MB-435 tumors were given BT2 200 mg/kg or vehicle i.p. once a day on a 5 days-on/2 days-off schedule. Treatment commenced on Day 16 (FIG. 7A).

A375 cells = experiment: Invasion assay (Matrigel), A375; assay type: cell-based, human; conditions: 1 μM, 24 h, with greater potency than SCH772984
Experimental: Invasion assays. Cells were grown in medium containing 10% FBS in 24-well plates. The following day the cells were scratched with a sterile toothpick, washed with PBS, and overlayed with 90% Matrigel (cat. no. 354230, Corning) (200 μl/well) containing vehicle, BT2 or SCH772984 at 1 μM. The cells were immediately photographed under a 10× objective using an Olympus CKX41 microscope, incubated at 37° C. for 1 h, and medium (800 μl/well) containing 10% FBS with vehicle, BT2 or SCH772984 at 1 μM was added. After 24 or 48 h, the cells were again photographed under a 10× objective using the same microscope. To assess the effect of BT2 on melanoma cell migration, A375 and MeWo cells were incubated with 1 μM of BT2 or SCH772984, and A375 and MeWo migration into the denuded zone was quantified after 24 or 48 h, respectively.

PD-1 = experiment: Western blotting for PD-1, Jurkat T cells; assay type: cell-based, human; conditions: various concentrations, 24 h
Experimental: Western blotting. Cells were treated with compounds and times indicated and total cell lysates were prepared in RIPA buffer. Lysates (10 μg) were resolved by SDS-PAGE and transferred to Immobilon-P polyvinylidene difluoride (PVDF) membranes (Millipore, USA).
Membranes were blocked with 5% skim milk and incubated with rabbit monoclonal anti-c-Jun (Abcam, cat. no. ab32137; mouse, rat and human reactive) antibody, rabbit monoclonal anti-PD-1 (Abcam, cat. no. ab214421) antibody, mouse monoclonal β-actin antibody (Sigma-Aldrich, cat. no. A5316), anti-phospho-SAPK/JNK (Thr^183/Tyr^185) (98F2) (CST, cat. no. 4671) antibody, anti-phospho-p44/42 MAPK (ERK1/2) (Thr^202/Tyr^204) (D13.14.4E) (CST, cat. no. 4370) antibody, anti-phospho-p38 MAPK (Thr^180/Tyr^182) (D3F9) (CST, cat. no. 4511) antibody, anti-SAPK/JNK antibody (CST, cat. no. 9252), anti-p44/42 MAPK (ERK1/2) (137F5) antibody (CST, cat. no. 4695), anti-p38 MAPK antibody (CST, cat. no. 9212), anti-DUSP8 antibody (Abcam, cat. no. ab198175) or anti-c-MAF (BLR045F) antibody (Abcam, cat. no. ab243901). This was followed by incubation with horseradish peroxidase-conjugated secondary goat anti-rabbit (DAKO, cat. no. P0448) or goat anti-mouse (DAKO, cat. no. P0447) antibody. Chemiluminescence was detected using the Western Lightning Chemiluminescence system (Thermo Scientific, USA) and ImageQuant™ LAS 4000 biomolecular imager (GE Healthcare Life Sciences, USA). Band intensity in images generated with the LAS 4000 was quantified using NIH Image J.

[2] = MDA-MB-435, 20 mg/kg i.t. once a day

## CCOC(=O)Nc1ccc2c(c1)C(=O)N(CC)c1ccccc1O2 [BT2, (10-ethyl-11-oxo-10,11-dihydro-dibenzo[b,f][1,4]oxazepin-2-yl)-carbamic acid ethyl ester]
[1]; [2]
  body weight: no adverse effect on body weight
  tumor growth (volume): caused growth inhibition
[1]; MDA-MB-435, 200 mg/kg i.p. once a day
  tumor growth (volume): no inhibition was observed
A375 cells
  invasion into the denuded zone of Matrigel: suppressed
PD-1
  PD-1 expression (Western blot): suppressed by BT2 in a dose-dependent manner
